Reference: article PMC11868595, “Safety, pharmacokinetics and efficacy of HA121-28 in patients with advanced solid tumors and RET fusion-positive non-small-cell lung cancer: a multicenter, open-label, single-arm phase 1/2 trial” (Signal Transduction and Targeted Therapy, 2025)

Assays:
[1] = Phase 1 clinical pharmacokinetics in plasma; type: in vivo, human; details: for AUC0-24,ss, Mean (CV%) / Cmax,ss, Mean (CV%) / Tmax,ss, median [Min-Max]: Steady State
HT29 cells = experiment: Tumor cell proliferation in vitro; type: cell-based
Dog plasma kinetics = type: in vivo
ABL1 = ABL1 (Homo sapiens, UniProt P00519); experiment: Tyrosine kinase inhibition; type: biochemical
A375 cells = experiment: Tumor cell proliferation in vitro; type: cell-based, human

ABL1, sequence (P00519 whole entry): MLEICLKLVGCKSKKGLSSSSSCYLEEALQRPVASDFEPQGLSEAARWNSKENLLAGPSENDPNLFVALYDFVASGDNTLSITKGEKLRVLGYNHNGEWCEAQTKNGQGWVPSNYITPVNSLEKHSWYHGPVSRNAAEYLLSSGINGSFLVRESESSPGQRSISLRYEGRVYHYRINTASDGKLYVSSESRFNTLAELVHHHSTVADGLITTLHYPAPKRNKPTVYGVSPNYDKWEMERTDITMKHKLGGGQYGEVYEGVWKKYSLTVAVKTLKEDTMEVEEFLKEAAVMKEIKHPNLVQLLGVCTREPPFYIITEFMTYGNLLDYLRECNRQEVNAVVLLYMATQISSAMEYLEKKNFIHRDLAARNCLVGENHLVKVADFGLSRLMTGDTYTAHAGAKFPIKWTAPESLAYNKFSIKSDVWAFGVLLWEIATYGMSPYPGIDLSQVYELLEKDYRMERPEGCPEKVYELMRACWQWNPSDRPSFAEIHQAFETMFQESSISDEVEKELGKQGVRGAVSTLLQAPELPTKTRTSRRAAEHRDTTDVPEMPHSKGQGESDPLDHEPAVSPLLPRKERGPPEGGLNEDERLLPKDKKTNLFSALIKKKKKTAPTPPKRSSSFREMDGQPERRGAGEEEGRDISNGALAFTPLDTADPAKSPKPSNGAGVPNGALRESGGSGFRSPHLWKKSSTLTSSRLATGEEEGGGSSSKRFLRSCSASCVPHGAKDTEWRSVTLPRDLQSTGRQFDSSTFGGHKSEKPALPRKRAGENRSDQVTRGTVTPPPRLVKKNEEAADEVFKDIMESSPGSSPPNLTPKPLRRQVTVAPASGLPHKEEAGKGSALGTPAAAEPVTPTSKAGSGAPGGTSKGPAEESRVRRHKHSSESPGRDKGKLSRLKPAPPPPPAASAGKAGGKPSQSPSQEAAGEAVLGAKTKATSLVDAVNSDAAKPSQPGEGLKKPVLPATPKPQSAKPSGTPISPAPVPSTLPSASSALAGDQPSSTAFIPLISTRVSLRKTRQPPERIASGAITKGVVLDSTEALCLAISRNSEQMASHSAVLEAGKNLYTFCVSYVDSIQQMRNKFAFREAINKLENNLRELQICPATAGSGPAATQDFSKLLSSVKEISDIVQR

## COc1cc2c(Nc3ccc(Br)cc3F)ncnc2cc1OCCCCN(C)C.Cl.Cl [HA121-28, N-(4-bromo-2-fluorophenyl)-7-(4-(dimethylamino)butoxy)-6-methoxy quinazolin-4-amine dihydrochloride]
[1]; Single dose, 800 mg (N=3)
  t1/2z, Mean (CV%): 74.1 (24.6) h
[1]; 25 mg (N=1)
  AUC0-24,ss, Mean (CV%): 1629.1 (-) h*ng/mL
  Cmax,ss, Mean (CV%): 77.2 (-) ng/mL
  Tmax,ss, median [Min-Max]: 2 [2,2] h
[1]; 50 mg (N=1)
  AUC0-24,ss, Mean (CV%): 2728.6 (-) h*ng/mL
  Cmax,ss, Mean (CV%): 122.0 (-) ng/mL
  Tmax,ss, median [Min-Max]: 4 [4,4] h
[1]; 100 mg (N=4)
  AUC0-24,ss, Mean (CV%): 4785.0 (1808.2) h*ng/mL
  Cmax,ss, Mean (CV%): 219.0 (75.2) ng/mL
  Tmax,ss, median [Min-Max]: 8 [4-8] h
[1]; 200 mg (N=4)
  AUC0-24,ss, Mean (CV%): 11332.7 (4944.0) h*ng/mL
  Cmax,ss, Mean (CV%): 550.0 (229.2) ng/mL
  Tmax,ss, median [Min-Max]: 8 [8-8] h
[1]; 300 mg (N=4)
  AUC0-24,ss, Mean (CV%): 12969.9 (1048.1) h*ng/mL
  Cmax,ss, Mean (CV%): 635.3 (30.1) ng/mL
  Tmax,ss, median [Min-Max]: 4 [4-4] h
[1]; 450 mg (N=7)
  AUC0-24,ss, Mean (CV%): 18460.0 (3291.4) h*ng/mL
  Cmax,ss, Mean (CV%): 945.8 (189.0) ng/mL
  Tmax,ss, median [Min-Max]: 6 [4-8] h
[1]; 600 mg (N=5)
  AUC0-24,ss, Mean (CV%): 27965.4 (13872.8) h*ng/mL
  Cmax,ss, Mean (CV%): 1453.0 (825.0) ng/mL
  Tmax,ss, median [Min-Max]: 4 [4-8] h
[1]; 800 mg (N=3)
  AUC0-24,ss, Mean (CV%): 23180.1 (3336.5) h*ng/mL
  Cmax,ss, Mean (CV%): 1067.0 (216.4) ng/mL
  Tmax,ss, median [Min-Max]: 6 [4-8] h
[1]; multiple dosing
  time to steady state: two
HT29 cells
  IC50: 5.4 ± 0.813 µM
Dog plasma kinetics; 7 consecutive days (5 mg/kg)
  AUC0-72h: 639 ± 69.0 ng·h/mL
  AUC0-∞: 655 ± 72.2 ng·h/mL
  CL: 10.5 ± 1.29 L/h/kg
  Cmax: 30.6 ± 3.25 ng/mL
  MRT0-∞: 18.5 ± 1.89 h
  Tmax: 6.17 ± 2.48 h
  Vd: 214 ± 25.1 L/kg
  t1/2: 14.2 ± 1.19 h
Dog plasma kinetics; dog
  F (oral bioavailability): 56.0%
Dog plasma kinetics; high dose (10 mg/kg)
  AUC0-72h: 837 ± 207 ng·h/mL
  AUC0-∞: 848 ± 212 ng·h/mL
  CL: 12.7 ± 4.51 L/h/kg
  Cmax: 58.9 ± 26.7 ng/mL
  MRT0-72h: 14.8 ± 1.96 h
  MRT0-∞: 15.7 ± 2.45 h
  Tmax: 2.17 ± 0.753 h
  Vd: 197 ± 57.5 L/kg
  t1/2: 11.0 ± 1.51 h
Dog plasma kinetics; intravenous (2.5 mg/kg)
  AUC0-72h: 489 ± 73.0 ng·h/mL
  AUC0-∞: 493 ± 73.7 ng·h/mL
  C5min: 124 ± 17.6 ng/mL
  CL: 5.18 ± 0.889 L/h/kg
  MRT0-72h: 10.9 ± 1.30 h
  MRT0-∞: 11.5 ± 1.51 h
  Vd: 85.0 ± 27.0 L/kg
  t1/2: 11.2 ± 1.70 h
Dog plasma kinetics; low dose (2.5 mg/kg)
  AUC0-72h: 274 ± 68.2 ng·h/mL
  AUC0-∞: 279 ± 70.5 ng·h/mL
  CL: 9.41 ± 2.24 L/h/kg
  Cmax: 13.4 ± 2.71 ng/mL
  MRT0-72h: 16.3 ± 2.03 h
  MRT0-∞: 17.6 ± 2.45 h
  Tmax: 6.50 ± 3.51 h
  Vd: 160 ± 41.3 L/kg
  t1/2: 11.8 ± 1.00 h
Dog plasma kinetics; medium dose (5 mg/kg)
  AUC0-72h: 393 ± 74.0 ng·h/mL
  AUC0-∞: 398 ± 75.3 ng·h/mL
  CL: 13.0 ± 2.57 L/h/kg
  Cmax: 24.8 ± 3.90 ng/mL
  MRT0-72h: 14.3 ± 1.36 h
  MRT0-∞: 15.2 ± 1.57 h
  Tmax: 2.17 ± 0.753 h
  Vd: 217 ± 53.6 L/kg
  t1/2: 11.5 ± 1.16 h
ABL1
  IC50: 153 nM
A375 cells
  IC50: 716 ± 154 nM
